Measurements published in ChEMBL document CHEMBL1201862, “PubChem BioAssay data set” (2004).
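Interpolation was linear, between the two tested concentrations surrounding the appropriate level; five concentrations were tested over 48 hours in 96-well plates. GI50: concentration for 50% inhibition of growth.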 Activity calls are given as the source filed them. Rule as the data show it: active = GI50 up to about 1.1 µM and inactive = higher.

Legend:
Experiment in all cases: NCI anticancer screen, dose series, 48 h
[1] = test system: SK-OV-3
[2] = test system: MDA-MB-231
[3] = test system: SNB-75
[4] = test system: HOP-92
[5] = test system: BT-549
[6] = test system: MDA-MB-435
[7] = test system: OVCAR-5
[8] = test system: T47D
[9] = test system: NCI-H23
[10] = test system: DU-145
[11] = test system: TK-10
[12] = test system: HT-29
[13] = test system: NCI/ADR-RES
[14] = test system: OVCAR-3
[15] = test system: LOX IMVI
[16] = test system: EKVX
[17] = test system: HCT-116
[18] = test system: HCT-15
[19] = test system: OVCAR-8
[20] = test system: CAKI-1

| Structure (SMILES) | GI50 [1] | GI50 [2] | GI50 [3] | GI50 [4] | GI50 [5] | GI50 [6] | GI50 [7] | GI50 [8] | GI50 [9] | GI50 [10] | GI50 [11] | GI50 [12] | GI50 [13] | GI50 [14] | GI50 [15] | GI50 [16] | GI50 [17] | GI50 [18] [µM] | GI50 [19] | GI50 [20] |
| --- | --- | --- | --- | --- | --- | --- | --- | --- | --- | --- | --- | --- | --- | --- | --- | --- | --- | --- | --- | --- |
| CO/N=C/c1c(-c2ccc(Cl)cc2)c(/C=N/OC)n2c1sc1ccccc12 | > 100 µM (inactive) | > 100 µM (inactive) | > 100 µM (inactive) | 8.49 µM (inactive) | > 100 µM (inactive) | > 100 µM (inactive) | > 100 µM (inactive) | 21.2 µM (inactive) | > 100 µM (inactive) | > 100 µM (inactive) | > 100 µM (inactive) | 81.8 µM (inactive) | > 100 µM (inactive) | > 100 µM (inactive) | > 100 µM (inactive) | > 100 µM (inactive) | > 100 µM (inactive) | > 100 | > 100 µM (inactive) | > 100 µM (inactive) |
| CCCCCC(/C=C/C1CCC(=O)C1CC#C[Si](C)(C)C)OCc1ccccc1 (stereo not given) | 41.2 µM (inactive) | 23.1 µM (inactive) | 16.6 µM (inactive) | 12.1 µM (inactive) | 17.3 µM (inactive) | 19.9 µM (inactive) | 19.9 µM (inactive) | 23.2 µM (inactive) | 22.2 µM (inactive) | 31.8 µM (inactive) | 22.1 µM (inactive) | 16.3 µM (inactive) | 14.5 µM (inactive) | 17.5 µM (inactive) | 15.7 µM (inactive) | 16.9 µM (inactive) | 15.8 µM (inactive) | 15.6 | 14.8 µM (inactive) | 17.9 µM (inactive) |
| CNC(=O)N(CCC#N)[C@H]1CCCC[C@@H]1N(C(=O)NC)c1ccccc1 | > 100 µM (inactive) | > 100 µM (inactive) | > 100 µM (inactive) | > 100 µM (inactive) | > 100 µM (inactive) | > 100 µM (inactive) | > 100 µM (inactive) | > 100 µM (inactive) | > 100 µM (inactive) | > 100 µM (inactive) | > 100 µM (inactive) | > 100 µM (inactive) | > 100 µM (inactive) | > 100 µM (inactive) | > 100 µM (inactive) | > 100 µM (inactive) | > 100 µM (inactive) | > 100 | > 100 µM (inactive) | > 100 µM (inactive) |
| CC(C)CCNC(=O)c1ccc(CNC(=O)/C=C/c2ccc3c(c2)-c2ccccc2C3)cc1 | 57.1 µM (inactive) | 34.5 µM (inactive) | 23.7 µM (inactive) | 41.2 µM (inactive) | 87.3 µM (inactive) | 52.5 µM (inactive) | > 100 µM (inactive) | 39 µM (inactive) | 94 µM (inactive) | 44.6 µM (inactive) | 40 µM (inactive) | 41.5 µM (inactive) | 34.2 µM (inactive) | 23.4 µM (inactive) | 50.6 µM (inactive) | > 100 µM (inactive) | 59.8 µM (inactive) | 41.5 | 27.7 µM (inactive) | 26.5 µM (inactive) |
| NC(CSS(=O)(=O)c1ccccc1)C(=O)O (stereo not given) | > 10 µM (inactive) | > 10 µM (inactive) | > 10 µM (inactive) | > 10 µM (inactive) | > 10 µM (inactive) | > 10 µM (inactive) | > 10 µM (inactive) | > 10 µM (inactive) | > 10 µM (inactive) | > 10 µM (inactive) | > 10 µM (inactive) | > 10 µM (inactive) | > 10 µM (inactive) | > 10 µM (inactive) | > 10 µM (inactive) | > 10 µM (inactive) | > 10 µM (inactive) | > 10 | > 10 µM (inactive) | > 10 µM (inactive) |
| COc1ccc2c(c1)c1ccc3c(c1n2C)C(=O)C=CC3=O | 29.2 µM (inactive) | 5.18 µM (inactive) | 31.7 µM (inactive) | 4.95 µM (inactive) | 3.77 µM (inactive) | 7.96 µM (inactive) | 15.2 µM (inactive) | 2.21 µM (inactive) | 13 µM (inactive) | 9.77 µM (inactive) | 7.76 µM (inactive) | 14 µM (inactive) | 5.79 µM (inactive) | 8.39 µM (inactive) | 8.83 µM (inactive) | 14.1 µM (inactive) | 5.42 µM (inactive) | 4.72 | 11.4 µM (inactive) | 8.26 µM (inactive) |
